In the kinase profiling compilation of Christmann-Franck et al. (2016):
One block for each compound: values may come before it.

How the values were obtained:
Assay in all cases: radiometric filter-binding kinase assay
AURKB (human) = AURKB (human) (UniProt Q96GD4)
CDK2 CCNA2 (human) = CDK2 CCNA2 (human) (UniProt P20248+P24941)
CHEK1 (human) = CHEK1 (human) (UniProt O14757)
CSNK2A1 (human) = CSNK2A1 (human) (UniProt P68400)
DYRK2 (human) = DYRK2 (human) (UniProt Q92630)
EEF2K (human) = EEF2K (human) (UniProt O00418)
Sequence of EEF2K (human) (O00418 whole entry, looked up): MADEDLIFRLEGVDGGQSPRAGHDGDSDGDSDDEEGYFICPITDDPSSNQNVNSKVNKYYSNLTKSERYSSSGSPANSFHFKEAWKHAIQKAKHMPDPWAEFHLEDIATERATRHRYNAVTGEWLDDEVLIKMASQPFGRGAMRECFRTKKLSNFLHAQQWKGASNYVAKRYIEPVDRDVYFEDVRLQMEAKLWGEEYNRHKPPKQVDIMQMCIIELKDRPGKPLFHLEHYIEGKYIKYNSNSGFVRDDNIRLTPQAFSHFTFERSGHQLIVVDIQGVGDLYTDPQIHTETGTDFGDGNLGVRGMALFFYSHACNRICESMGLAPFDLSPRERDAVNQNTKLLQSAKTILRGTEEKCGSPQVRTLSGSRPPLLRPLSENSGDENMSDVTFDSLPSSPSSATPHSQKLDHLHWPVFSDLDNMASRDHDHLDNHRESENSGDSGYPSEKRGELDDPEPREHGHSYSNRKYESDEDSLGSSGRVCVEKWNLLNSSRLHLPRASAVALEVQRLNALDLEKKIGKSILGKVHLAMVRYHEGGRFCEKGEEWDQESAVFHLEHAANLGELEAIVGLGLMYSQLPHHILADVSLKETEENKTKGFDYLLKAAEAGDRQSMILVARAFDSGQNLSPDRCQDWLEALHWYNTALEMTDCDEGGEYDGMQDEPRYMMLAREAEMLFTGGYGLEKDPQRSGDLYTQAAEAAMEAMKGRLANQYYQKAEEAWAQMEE

MAPK10 (human) = MAPK10 (human) (UniProt P53779)
MAPK12 (human) = MAPK12 (human) (UniProt P53778)
MAPK15 (human) = MAPK15 (human) (UniProt Q8TD08)
MAPKAPK3 (human) = MAPKAPK3 (human) (UniProt Q16644)
MAPKAPK5 (human) = MAPKAPK5 (human) (UniProt Q8IW41)
Sequence of MAPKAPK5 (human) (Q8IW41 whole entry, looked up): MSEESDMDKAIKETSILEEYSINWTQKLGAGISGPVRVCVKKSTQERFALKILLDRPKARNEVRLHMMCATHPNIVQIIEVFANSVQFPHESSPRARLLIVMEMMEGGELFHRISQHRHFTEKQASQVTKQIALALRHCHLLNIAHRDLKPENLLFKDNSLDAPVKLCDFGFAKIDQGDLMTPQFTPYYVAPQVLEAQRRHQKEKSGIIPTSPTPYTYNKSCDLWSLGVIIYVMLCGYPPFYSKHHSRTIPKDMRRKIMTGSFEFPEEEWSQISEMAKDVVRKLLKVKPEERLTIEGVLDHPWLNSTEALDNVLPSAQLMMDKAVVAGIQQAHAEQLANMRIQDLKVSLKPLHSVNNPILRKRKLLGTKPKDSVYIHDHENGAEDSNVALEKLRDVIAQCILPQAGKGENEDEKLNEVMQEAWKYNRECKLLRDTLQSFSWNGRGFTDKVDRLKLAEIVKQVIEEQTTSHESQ

MELK (human) = MELK (human) (UniProt Q14680)
Sequence of MELK (human) (Q14680 whole entry, looked up): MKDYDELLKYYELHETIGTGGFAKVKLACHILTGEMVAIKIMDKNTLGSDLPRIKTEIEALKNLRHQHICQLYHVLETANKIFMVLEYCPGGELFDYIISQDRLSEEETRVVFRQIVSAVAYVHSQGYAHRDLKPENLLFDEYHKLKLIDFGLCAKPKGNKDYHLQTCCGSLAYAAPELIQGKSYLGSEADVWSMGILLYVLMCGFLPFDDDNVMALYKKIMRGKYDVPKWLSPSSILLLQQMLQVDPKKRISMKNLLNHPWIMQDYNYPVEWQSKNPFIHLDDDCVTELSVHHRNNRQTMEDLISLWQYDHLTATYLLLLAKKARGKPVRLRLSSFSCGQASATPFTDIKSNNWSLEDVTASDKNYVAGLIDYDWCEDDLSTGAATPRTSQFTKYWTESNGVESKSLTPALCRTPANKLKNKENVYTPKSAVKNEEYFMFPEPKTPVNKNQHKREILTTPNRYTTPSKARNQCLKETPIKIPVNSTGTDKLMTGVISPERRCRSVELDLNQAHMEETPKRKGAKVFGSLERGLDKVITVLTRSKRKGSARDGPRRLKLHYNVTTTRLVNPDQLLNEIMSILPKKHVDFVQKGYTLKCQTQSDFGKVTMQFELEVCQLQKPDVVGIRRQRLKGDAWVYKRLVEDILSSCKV

PHKG1 (human) = PHKG1 (human) (UniProt Q16816)
Sequence of PHKG1 (human) (Q16816 whole entry, looked up): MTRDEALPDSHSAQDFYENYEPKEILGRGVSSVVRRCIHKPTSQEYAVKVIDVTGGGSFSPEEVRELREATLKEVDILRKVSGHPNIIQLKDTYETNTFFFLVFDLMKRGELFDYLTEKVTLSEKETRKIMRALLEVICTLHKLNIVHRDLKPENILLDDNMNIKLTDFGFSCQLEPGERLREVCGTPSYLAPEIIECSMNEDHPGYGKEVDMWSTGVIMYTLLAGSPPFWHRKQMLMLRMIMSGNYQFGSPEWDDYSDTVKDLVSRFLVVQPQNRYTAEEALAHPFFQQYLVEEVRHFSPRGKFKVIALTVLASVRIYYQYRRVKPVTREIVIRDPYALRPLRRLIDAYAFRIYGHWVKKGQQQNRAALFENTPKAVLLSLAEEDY

PIM2 (human) = PIM2 (human) (UniProt Q9P1W9)
Sequence of PIM2 (human) (Q9P1W9 whole entry, looked up): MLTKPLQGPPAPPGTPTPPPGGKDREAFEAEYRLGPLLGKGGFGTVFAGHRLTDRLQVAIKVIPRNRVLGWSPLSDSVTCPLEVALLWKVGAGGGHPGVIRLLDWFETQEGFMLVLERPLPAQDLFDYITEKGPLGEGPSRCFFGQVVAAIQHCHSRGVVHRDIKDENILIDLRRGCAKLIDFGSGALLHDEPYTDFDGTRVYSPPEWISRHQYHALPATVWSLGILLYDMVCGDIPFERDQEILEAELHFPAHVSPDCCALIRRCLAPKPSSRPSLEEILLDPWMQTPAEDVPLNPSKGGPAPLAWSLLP

PIM3 (human) = PIM3 (human) (UniProt Q86V86)
PRKACA (human) = PRKACA (human) (UniProt P17612)
PRKCA (human) = PRKCA (human) (UniProt P17252)
RPS6KA3 KD1 KD2 (human) = RPS6KA3 KD1 KD2 (human) (UniProt P51812)
[1] = tested on: SGK1 (human), O00141 [S422D]
SRPK1 (human) = SRPK1 (human) (UniProt Q96SB4)
Sequence of SRPK1 (human) (Q96SB4 whole entry, looked up): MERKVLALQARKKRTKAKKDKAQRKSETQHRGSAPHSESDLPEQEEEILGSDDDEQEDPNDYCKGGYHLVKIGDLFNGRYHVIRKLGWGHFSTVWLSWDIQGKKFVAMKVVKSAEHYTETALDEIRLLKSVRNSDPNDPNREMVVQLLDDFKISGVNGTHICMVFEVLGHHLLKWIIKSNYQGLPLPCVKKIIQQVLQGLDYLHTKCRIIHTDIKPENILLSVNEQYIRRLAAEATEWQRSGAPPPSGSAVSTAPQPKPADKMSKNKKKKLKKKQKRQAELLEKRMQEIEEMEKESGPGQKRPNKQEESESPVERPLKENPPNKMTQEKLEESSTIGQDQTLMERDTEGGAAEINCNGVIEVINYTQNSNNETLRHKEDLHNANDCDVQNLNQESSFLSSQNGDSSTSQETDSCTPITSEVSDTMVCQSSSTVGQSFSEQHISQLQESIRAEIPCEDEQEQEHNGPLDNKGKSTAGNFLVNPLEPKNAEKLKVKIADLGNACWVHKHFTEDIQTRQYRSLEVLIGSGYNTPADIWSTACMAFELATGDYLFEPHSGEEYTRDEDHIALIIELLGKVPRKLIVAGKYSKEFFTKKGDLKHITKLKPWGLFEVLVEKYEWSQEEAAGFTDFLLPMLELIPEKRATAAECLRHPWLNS

Sequence of AURKB (human) (Q96GD4 whole entry, looked up): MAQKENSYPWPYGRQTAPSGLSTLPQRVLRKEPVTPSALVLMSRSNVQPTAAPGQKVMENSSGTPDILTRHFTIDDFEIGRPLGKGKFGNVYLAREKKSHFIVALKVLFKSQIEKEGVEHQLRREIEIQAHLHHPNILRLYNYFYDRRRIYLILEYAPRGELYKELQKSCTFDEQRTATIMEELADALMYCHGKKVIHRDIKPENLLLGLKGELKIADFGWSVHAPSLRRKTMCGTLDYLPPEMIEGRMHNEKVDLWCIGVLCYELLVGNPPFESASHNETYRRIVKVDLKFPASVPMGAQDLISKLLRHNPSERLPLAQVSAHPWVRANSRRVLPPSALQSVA
Sequence of DYRK2 (human) (Q92630 whole entry, looked up): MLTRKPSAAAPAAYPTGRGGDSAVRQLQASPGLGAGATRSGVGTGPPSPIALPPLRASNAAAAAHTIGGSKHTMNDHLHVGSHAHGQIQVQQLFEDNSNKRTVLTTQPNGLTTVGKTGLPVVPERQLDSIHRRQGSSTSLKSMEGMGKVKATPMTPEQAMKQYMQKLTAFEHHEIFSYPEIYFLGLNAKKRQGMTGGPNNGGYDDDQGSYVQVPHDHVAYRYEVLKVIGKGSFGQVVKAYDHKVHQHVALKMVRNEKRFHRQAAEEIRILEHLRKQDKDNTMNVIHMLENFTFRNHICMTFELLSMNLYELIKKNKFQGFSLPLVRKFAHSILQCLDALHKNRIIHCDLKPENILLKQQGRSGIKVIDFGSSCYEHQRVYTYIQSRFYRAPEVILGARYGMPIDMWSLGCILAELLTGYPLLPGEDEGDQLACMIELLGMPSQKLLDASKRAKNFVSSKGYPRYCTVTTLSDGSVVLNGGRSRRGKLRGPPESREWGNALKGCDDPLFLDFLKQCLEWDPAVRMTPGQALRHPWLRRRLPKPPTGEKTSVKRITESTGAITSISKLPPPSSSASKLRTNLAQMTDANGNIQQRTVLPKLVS

residual activity (AURKB (human); compound 1.0 µM): 98% | residual activity (AURKB (human); compound 10.0 µM): 82% | residual activity (CDK2 CCNA2 (human); compound 1.0 µM): 98% | residual activity (CDK2 CCNA2 (human); compound 10.0 µM): 96% | residual activity (CHEK1 (human); compound 1.0 µM): 118% | residual activity (CHEK1 (human); compound 10.0 µM): 112% | residual activity (CSNK2A1 (human); compound 1.0 µM): 91% | residual activity (CSNK2A1 (human); compound 10.0 µM): 96% | residual activity (DYRK2 (human); compound 1.0 µM): 86% | residual activity (DYRK2 (human); compound 10.0 µM): 83% | residual activity (EEF2K (human); compound 1.0 µM): 102% | residual activity (EEF2K (human); compound 10.0 µM): 103% | residual activity (MAPK10 (human); compound 1.0 µM): 104% | residual activity (MAPK10 (human); compound 10.0 µM): 104% | residual activity (MAPK12 (human); compound 1.0 µM): 113% | residual activity (MAPK12 (human); compound 10.0 µM): 112% | residual activity (MAPKAPK3 (human); compound 1.0 µM): 137% | residual activity (MAPKAPK3 (human); compound 10.0 µM): 132% | residual activity (MAPKAPK5 (human); compound 1.0 µM): 107% | residual activity (MAPKAPK5 (human); compound 10.0 µM): 109% | residual activity (MELK (human); compound 1.0 µM): 109% | residual activity (MELK (human); compound 10.0 µM): 91% | residual activity (PHKG1 (human); compound 1.0 µM): 113% | residual activity (PHKG1 (human); compound 10.0 µM): 119% | residual activity (PIM2 (human); compound 1.0 µM): 100% | residual activity (PIM2 (human); compound 10.0 µM): 109% | residual activity (PIM3 (human); compound 1.0 µM): 101% | residual activity (PIM3 (human); compound 10.0 µM): 95% | residual activity (PRKACA (human); compound 1.0 µM): 106% | residual activity (PRKACA (human); compound 10.0 µM): 107% | residual activity (PRKCA (human); compound 1.0 µM): 120% | residual activity (PRKCA (human); compound 10.0 µM): 121% | residual activity (RPS6KA3 KD1 KD2 (human); compound 1.0 µM): 110% | residual activity (RPS6KA3 KD1 KD2 (human); compound 10.0 µM): 107% | residual activity ([1]; compound 1.0 µM): 97% | residual activity ([1]; compound 10.0 µM): 98% | residual activity (SRPK1 (human); compound 1.0 µM): 137% | residual activity (SRPK1 (human); compound 10.0 µM): 129%
Structure (SMILES): Cn1nc(Nc2ccc(F)cc2)c2c(N)ncnc21
residual activity (MAPK15 (human); compound 1.0 µM): 76% | residual activity (MAPK15 (human); compound 10.0 µM): 70%

residual activity (AURKB (human); compound 0.1 µM): 17% | residual activity (AURKB (human); compound 1.0 µM): 14% | residual activity (AURKB (human); compound 10.0 µM): 12% | residual activity (CDK2 CCNA2 (human); compound 0.1 µM): 95% | residual activity (CDK2 CCNA2 (human); compound 1.0 µM): 90% | residual activity (CDK2 CCNA2 (human); compound 10.0 µM): 81% | residual activity (CHEK1 (human); compound 0.1 µM): 56% | residual activity (CHEK1 (human); compound 1.0 µM): 13% | residual activity (CHEK1 (human); compound 10.0 µM): 4% | residual activity (CSNK2A1 (human); compound 0.1 µM): 105% | residual activity (CSNK2A1 (human); compound 1.0 µM): 83% | residual activity (CSNK2A1 (human); compound 10.0 µM): 71% | residual activity (DYRK2 (human); compound 0.1 µM): 98% | residual activity (DYRK2 (human); compound 1.0 µM): 65% | residual activity (DYRK2 (human); compound 10.0 µM): 70% | residual activity (EEF2K (human); compound 0.1 µM): 106% | residual activity (EEF2K (human); compound 1.0 µM): 106% | residual activity (EEF2K (human); compound 10.0 µM): 108% | residual activity (MAPK10 (human); compound 0.1 µM): 90% | residual activity (MAPK10 (human); compound 1.0 µM): 97% | residual activity (MAPK10 (human); compound 10.0 µM): 87% | residual activity (MAPK12 (human); compound 0.1 µM): 99% | residual activity (MAPK12 (human); compound 1.0 µM): 90% | residual activity (MAPK12 (human); compound 10.0 µM): 74% | residual activity (MAPKAPK3 (human); compound 0.1 µM): 131% | residual activity (MAPKAPK3 (human); compound 1.0 µM): 92% | residual activity (MAPKAPK3 (human); compound 10.0 µM): 79% | residual activity (MAPKAPK5 (human); compound 0.1 µM): 104% | residual activity (MAPKAPK5 (human); compound 1.0 µM): 103% | residual activity (MAPKAPK5 (human); compound 10.0 µM): 108% | residual activity (MELK (human); compound 0.1 µM): 72% | residual activity (MELK (human); compound 1.0 µM): 20% | residual activity (MELK (human); compound 10.0 µM): 8% | residual activity (PHKG1 (human); compound 0.1 µM): 77% | residual activity (PHKG1 (human); compound 1.0 µM): 17% | residual activity (PHKG1 (human); compound 10.0 µM): 11% | residual activity (PIM2 (human); compound 0.1 µM): 38% | residual activity (PIM2 (human); compound 1.0 µM): 6% | residual activity (PIM2 (human); compound 10.0 µM): 1% | residual activity (PIM3 (human); compound 0.1 µM): 2% | residual activity (PIM3 (human); compound 1.0 µM): 1% | residual activity (PIM3 (human); compound 10.0 µM): 1% | residual activity (PRKACA (human); compound 0.1 µM): 42% | residual activity (PRKACA (human); compound 1.0 µM): 7% | residual activity (PRKACA (human); compound 10.0 µM): 2% | residual activity (PRKCA (human); compound 0.1 µM): 5% | residual activity (PRKCA (human); compound 1.0 µM): 1% | residual activity (PRKCA (human); compound 10.0 µM): 1% | residual activity (RPS6KA3 KD1 KD2 (human); compound 0.1 µM): 3% | residual activity (RPS6KA3 KD1 KD2 (human); compound 1.0 µM): 0% | residual activity (RPS6KA3 KD1 KD2 (human); compound 10.0 µM): 0% | residual activity ([1]; compound 0.1 µM): 69% | residual activity ([1]; compound 1.0 µM): 25% | residual activity ([1]; compound 10.0 µM): 6% | residual activity (SRPK1 (human); compound 0.1 µM): 113% | residual activity (SRPK1 (human); compound 1.0 µM): 89% | residual activity (SRPK1 (human); compound 10.0 µM): 77%
Structure (SMILES): COc1ccc2c(c1)c1c3c(c4c5ccccc5n(C)c4c1n2CC(O)CN(C)C)C(=O)NC3=O (stereo not given)
residual activity (MAPK15 (human); compound 0.1 µM): 78% | residual activity (MAPK15 (human); compound 1.0 µM): 53% | residual activity (MAPK15 (human); compound 10.0 µM): 54%
